From PMC5218480 (PLoS ONE, 2017)

Tested on: MV-4-11 cells
Experiment: Gene expression microarray analysis (Affymetrix PrimeView) and GSEA
Format: cell-based, human
Design: RFU PODN (11730768_x_at) / Fold change /veh PODN (11730768_x_at) / RFU LINC00158 (11744669_a_at) / Fold change /veh LINC00158 (11744669_a_at) / RFU DUSP10 (11751237_a_at) / Fold change /veh DUSP10 (11751237_a_at) / RFU ID3 (11757404_x_at) / Fold change /veh ID3 (11757404_x_at) / RFU PLEKHG5 (11737974_s_at) / Fold change /veh PLEKHG5 (11737974_s_at) / RFU LRRC4B (11730491_at) / Fold change /veh LRRC4B (11730491_at) / RFU GIMAP4 (11747438_a_at) / Fold change /veh GIMAP4 (11747438_a_at) / RFU KRT8 (11758183_x_at) / Fold change /veh KRT8 (11758183_x_at) / RFU CNN1 (11734310_a_at) / Fold change /veh CNN1 (11734310_a_at) / RFU VPS37D (11726825_at) / Fold change /veh VPS37D (11726825_at) / RFU C10orf10 (11716522_x_at) / Fold change /veh C10orf10 (11716522_x_at) / RFU KIR2DL2 /// KIR2DL4 /// KIR2DL5A /// KIR2DL5B /// KIR2DS1 /// KIR2DS2 /// KIR2DS3 /// KIR2DS4 /// KIR3DL3 /// KIR3DL3 /// KIR3DS1 (11738374_at) / Fold change /veh KIR2DL2 /// KIR2DL4 /// KIR2DL5A /// KIR2DL5B /// KIR2DS1 /// KIR2DS2 /// KIR2DS3 /// KIR2DS4 /// KIR3DL3 /// KIR3DL3 /// KIR3DS1 (11738374_at) / RFU C1QL1 (11718748_at) / Fold change /veh C1QL1 (11718748_at) / RFU TMPRSS4 (11747572_a_at) / Fold change /veh TMPRSS4 (11747572_a_at) / RFU HAMP (11756126_x_at) / Fold change /veh HAMP (11756126_x_at) / RFU RNFT2 (11725882_a_at) / Fold change /veh RNFT2 (11725882_a_at) / RFU NR4A2 (11747474_a_at) / Fold change /veh NR4A2 (11747474_a_at) / RFU ABCC12 (11746883_a_at) / Fold change /veh ABCC12 (11746883_a_at) / RFU TMEM136 (11760407_x_at) / Fold change /veh TMEM136 (11760407_x_at) / RFU CLDN22 /// WWC2 (11732394_at) / Fold change /veh CLDN22 /// WWC2 (11732394_at) / RFU HLA-DPB1 (11760878_x_at) / Fold change /veh HLA-DPB1 (11760878_x_at) / RFU SPINT1 (11716480_a_at) / Fold change /veh SPINT1 (11716480_a_at) / RFU GAP43 (11754022_s_at) / Fold change /veh GAP43 (11754022_s_at) / RFU A4GNT (11735810_at) / Fold change /veh A4GNT (11735810_at) / RFU PRB3 (11715151_x_at) / Fold change /veh PRB3 (11715151_x_at) / RFU TUBB4B (11761932_at) / Fold change /veh TUBB4B (11761932_at) / RFU CAPN14 (11732068_a_at) / Fold change /veh CAPN14 (11732068_a_at) / RFU TMCC2 (11721928_a_at) / Fold change /veh TMCC2 (11721928_a_at) / RFU IRGQ (11745062_a_at) / Fold change /veh IRGQ (11745062_a_at) / RFU FAM174B (11720279_a_at) / Fold change /veh FAM174B (11720279_a_at) / RFU TMPRSS4 (11748680_a_at) / Fold change /veh TMPRSS4 (11748680_a_at) / RFU FAM212B (11763350_a_at) / Fold change /veh FAM212B (11763350_a_at) / RFU PLEKHG5 (11743358_a_at) / Fold change /veh PLEKHG5 (11743358_a_at) / RFU ZSCAN30 (11745921_a_at) / Fold change /veh ZSCAN30 (11745921_a_at) / RFU CMKLR1 (11741424_a_at) / Fold change /veh CMKLR1 (11741424_a_at) / RFU LOC101060620 /// MAPK8IP1 (11723275_at) / Fold change /veh LOC101060620 /// MAPK8IP1 (11723275_at) / RFU SPTSSB (11747773_x_at) / Fold change /veh SPTSSB (11747773_x_at) / RFU PRSS12 (11739890_at) / Fold change /veh PRSS12 (11739890_at) / RFU BIN1 (11741810_x_at) / Fold change /veh BIN1 (11741810_x_at) / RFU WNT11 (11732464_a_at) / Fold change /veh WNT11 (11732464_a_at) / RFU C10orf10 (11716521_a_at) / Fold change /veh C10orf10 (11716521_a_at) / RFU C5orf56 (11738089_at) / Fold change /veh C5orf56 (11738089_at) / RFU CYB561 (11721691_x_at) / Fold change /veh CYB561 (11721691_x_at) / RFU ANKRD19P (11752326_a_at) / Fold change /veh ANKRD19P (11752326_a_at) / RFU OR2T12 /// OR2T33 /// OR2T8 (11738714_s_at) / Fold change /veh OR2T12 /// OR2T33 /// OR2T8 (11738714_s_at) / RFU VCAN (11748164_a_at) / Fold change /veh VCAN (11748164_a_at) / RFU JSRP1 (11732532_at) / Fold change /veh JSRP1 (11732532_at) / RFU KRTAP10-11 (11738290_x_at) / Fold change /veh KRTAP10-11 (11738290_x_at) / RFU MYO3A (11730013_a_at) / Fold change /veh MYO3A (11730013_a_at) / RFU EBF3 (11725865_a_at) / Fold change /veh EBF3 (11725865_a_at) / RFU CAMK2N1 (11719241_x_at) / Fold change /veh CAMK2N1 (11719241_x_at) / RFU C5orf56 (11738088_a_at) / Fold change /veh C5orf56 (11738088_a_at) / RFU OLFML3 (11715873_a_at) / Fold change /veh OLFML3 (11715873_a_at) / RFU LOC100653217 /// NTM (11731650_a_at) / Fold change /veh LOC100653217 /// NTM (11731650_a_at) / RFU MAPK11 (11762145_a_at) / Fold change /veh MAPK11 (11762145_a_at) / RFU FIZ1 (11724087_x_at) / Fold change /veh FIZ1 (11724087_x_at) / RFU OASL (11726364_x_at) / Fold change /veh OASL (11726364_x_at) / RFU SOX15 (11748057_x_at) / Fold change /veh SOX15 (11748057_x_at) / RFU CD79A (11719716_a_at) / Fold change /veh CD79A (11719716_a_at) / RFU HIST1H1D (11736915_at) / Fold change /veh HIST1H1D (11736915_at) / RFU CASKIN2 (11723855_a_at) / Fold change /veh CASKIN2 (11723855_a_at) / RFU LOC730098 (11760151_x_at) / Fold change /veh LOC730098 (11760151_x_at) / RFU OR4N2 (11742367_at) / Fold change /veh OR4N2 (11742367_at) / RFU PRRT2 (11749266_a_at) / Fold change /veh PRRT2 (11749266_a_at) / RFU SNX32 (11753110_a_at) / Fold change /veh SNX32 (11753110_a_at) / RFU CDHR5 (11726645_a_at) / Fold change /veh CDHR5 (11726645_a_at) / RFU RCAN1 (11760418_a_at) / Fold change /veh RCAN1 (11760418_a_at) / RFU FAM167A (11723789_a_at) / Fold change /veh FAM167A (11723789_a_at) / RFU FAM26E (11764081_at) / Fold change /veh FAM26E (11764081_at) / RFU ISYNA1 (11749810_s_at) / Fold change /veh ISYNA1 (11749810_s_at) / RFU ACY1 (11761880_at) / Fold change /veh ACY1 (11761880_at) / RFU 11764098_at / Fold change /veh 11764098_at / RFU SAMD14 (11745864_x_at) / Fold change /veh SAMD14 (11745864_x_at) / RFU NPB (11741838_a_at) / Fold change /veh NPB (11741838_a_at) / RFU TMPRSS6 (11731388_a_at) / Fold change /veh TMPRSS6 (11731388_a_at) / RFU KRTAP10-2 (11738614_at) / Fold change /veh KRTAP10-2 (11738614_at) / RFU ARHGAP8 /// PRR5-ARHGAP8 (11727945_x_at) / Fold change /veh ARHGAP8 /// PRR5-ARHGAP8 (11727945_x_at) / RFU KRTAP5-7 /// NADSYN1 (11734609_at) / Fold change /veh KRTAP5-7 /// NADSYN1 (11734609_at) / RFU RASL12 (11751679_a_at) / Fold change /veh RASL12 (11751679_a_at) / RFU CDKN2B (11736163_a_at) / Fold change /veh CDKN2B (11736163_a_at) / RFU PRF1 (11729649_at) / Fold change /veh PRF1 (11729649_at) / RFU, ZNF638 /// ZNF638-IT1 / Fold change vs veh, ZNF638 /// ZNF638-IT1 / RFU, PANK3 / Fold change vs veh, PANK3 / RFU, SH3YL1 / Fold change vs veh, SH3YL1 / RFU, ZEB2 / Fold change vs veh, ZEB2 / RFU, NRIP1 / Fold change vs veh, NRIP1 / RFU, PTTG1IP / Fold change vs veh, PTTG1IP / RFU, CAPN2 / Fold change vs veh, CAPN2 / RFU, MED14 / Fold change vs veh, MED14 / RFU, SNORA58 / Fold change vs veh, SNORA58 / RFU, C1orf63 / Fold change vs veh, C1orf63 / RFU, LRRFIP1 / Fold change vs veh, LRRFIP1 / RFU, NDUFAF7 / Fold change vs veh, NDUFAF7 / RFU, SLC12A2 / Fold change vs veh, SLC12A2 / RFU, IBTK / Fold change vs veh, IBTK / RFU, ESF1 / Fold change vs veh, ESF1 / Fold change vs veh, TMEM50B / RFU, TAOK1 / Fold change vs veh, TAOK1 / RFU, ACBD3 / Fold change vs veh, ACBD3 / RFU, TMA16 / Fold change vs veh, TMA16 / RFU, RWDD3 / Fold change vs veh, RWDD3 / RFU, BCAT1 / Fold change vs veh, BCAT1 / RFU, EDEM3 / Fold change vs veh, EDEM3 / RFU, TMEM33 / Fold change vs veh, TMEM33 / RFU, WDR75 / Fold change vs veh, WDR75 / RFU, AHCTF1 / Fold change vs veh, AHCTF1 / RFU, TFRC / Fold change vs veh, TFRC / RFU, ZDHHC17 / Fold change vs veh, ZDHHC17 / RFU, NOM1 / Fold change vs veh, NOM1 / RFU, ARL8B / Fold change vs veh, ARL8B / RFU, ZBTB11 / Fold change vs veh, ZBTB11 / RFU, TAMM41 / Fold change vs veh, TAMM41 / RFU, KIAA1704 /// LOC100996395 / Fold change vs veh, KIAA1704 /// LOC100996395 / RFU, ING1 / Fold change vs veh, ING1 / RFU, TRMT61B / Fold change vs veh, TRMT61B / RFU, FUBP3 / Fold change vs veh, FUBP3 / RFU, TP53 / Fold change vs veh, TP53 / RFU, TNKS2 / Fold change vs veh, TNKS2 / RFU, ZFP14 / Fold change vs veh, ZFP14 / RFU, ACTR2 / Fold change vs veh, ACTR2 / RFU, PPP3R1 / Fold change vs veh, PPP3R1 / RFU, PIK3R1 / Fold change vs veh, PIK3R1 / RFU, HNRNPA1 / Fold change vs veh, HNRNPA1 / RFU, RNF170 / Fold change vs veh, RNF170 / RFU, ZNF28 / Fold change vs veh, ZNF28 / RFU, RNGTT / Fold change vs veh, RNGTT / RFU, OGT / Fold change vs veh, OGT / RFU, BRD1 / Fold change vs veh, BRD1 / RFU, MARS / Fold change vs veh, MARS / RFU, ZNF655 / Fold change vs veh, ZNF655 / RFU, FAHD1 / Fold change vs veh, FAHD1 / RFU, BDP1 / Fold change vs veh, BDP1 / RFU, LRRCC1 / Fold change vs veh, LRRCC1 / RFU, ARID1A / Fold change vs veh, ARID1A / RFU, ZNF146 / Fold change vs veh, ZNF146 / RFU, ZNF330 / Fold change vs veh, ZNF330 / RFU, GPN3 / Fold change vs veh, GPN3 / RFU, C9orf123 / Fold change vs veh, C9orf123 / RFU, N4BP2L2 / Fold change vs veh, N4BP2L2 / RFU, ARFIP1 / Fold change vs veh, ARFIP1 / RFU, FAM179B / Fold change vs veh, FAM179B / RFU, BCL10 / Fold change vs veh, BCL10 / RFU, UHRF1BP1L / Fold change vs veh, UHRF1BP1L / RFU, BET1 / Fold change vs veh, BET1 / RFU, CNOT2 / Fold change vs veh, CNOT2 / RFU, ZNF268 / Fold change vs veh, ZNF268 / Fold change vs veh, ZNF507 / RFU, DGCR2 / Fold change vs veh, DGCR2 / RFU, WDSUB1 / Fold change vs veh, WDSUB1 / Fold change vs veh, HSP90B1 /// MIR3652 / RFU, ADSS / Fold change vs veh, ADSS / RFU, GK / Fold change vs veh, GK / RFU, ZNF148 / Fold change vs veh, ZNF148 / RFU, TAF9 / Fold change vs veh, TAF9 / RFU, SLC1A5 / Fold change vs veh, SLC1A5 / RFU, SLMO2 / Fold change vs veh, SLMO2 / RFU, ABCC4 / Fold change vs veh, ABCC4 / RFU, LOC101060439 /// RAP1B / Fold change vs veh, LOC101060439 /// RAP1B / RFU, RFX7 / Fold change vs veh, RFX7 / RFU, GTPBP10 / Fold change vs veh, GTPBP10 / RFU, CNEP1R1 / Fold change vs veh, CNEP1R1 / RFU, BIVM-ERCC5 /// ERCC5 / Fold change vs veh, BIVM-ERCC5 /// ERCC5 / RFU, ILF3 / Fold change vs veh, ILF3 / RFU 11762660_at / Fold change /veh 11762660_at / RFU VCAN (11757783_s_at) / Fold change /veh VCAN (11757783_s_at) / RFU DDX43 (11728927_at) / Fold change /veh DDX43 (11728927_at) / RFU KRT8 (11758188_x_at) / Fold change /veh KRT8 (11758188_x_at) / RFU NKD1 (11759106_at) / Fold change /veh NKD1 (11759106_at) / RFU SRD5A1 (11742802_a_at) / Fold change /veh SRD5A1 (11742802_a_at) / RFU TPSAB1 /// TPSB2 (11721975_s_at) / Fold change /veh TPSAB1 /// TPSB2 (11721975_s_at) / RFU GSTM3 (11746129_a_at) / Fold change /veh GSTM3 (11746129_a_at) / RFU IL23R (11737362_x_at) / Fold change /veh IL23R (11737362_x_at) / RFU TMEM51 (11727254_a_at) / Fold change /veh TMEM51 (11727254_a_at) / RFU PIWIL2 (11732686_x_at) / Fold change /veh PIWIL2 (11732686_x_at) / RFU ORM1 (11744905_x_at) / Fold change /veh ORM1 (11744905_x_at) / RFU CCDC152 (11743942_at) / Fold change /veh CCDC152 (11743942_at) / RFU ECM1 (11717891_a_at) / Fold change /veh ECM1 (11717891_a_at) / RFU IL23R (11748794_a_at) / Fold change /veh IL23R (11748794_a_at) / RFU TNFAIP8L3 (11732012_x_at) / Fold change /veh TNFAIP8L3 (11732012_x_at) / RFU MBOAT4 (11741988_at) / Fold change /veh MBOAT4 (11741988_at) / RFU 11764193_at / Fold change /veh 11764193_at / RFU TMEM53 (11763286_at) / Fold change /veh TMEM53 (11763286_at) / RFU MAGEB2 (11727129_at) / Fold change /veh MAGEB2 (11727129_at) / RFU TMEM200A (11744735_a_at) / Fold change /veh TMEM200A (11744735_a_at) / RFU CCDC152 (11751479_a_at) / Fold change /veh CCDC152 (11751479_a_at) / RFU FAM211A (11726209_a_at) / Fold change /veh FAM211A (11726209_a_at) / RFU RGS16 (11746705_a_at) / Fold change /veh RGS16 (11746705_a_at) / RFU VCAN (11755009_s_at) / Fold change /veh VCAN (11755009_s_at) / RFU RHOB (11743442_s_at) / Fold change /veh RHOB (11743442_s_at) / RFU RGS16 (11720943_a_at) / Fold change /veh RGS16 (11720943_a_at) / RFU RGS16 (11720944_at) / Fold change /veh RGS16 (11720944_at) / RFU, VPS4B / Fold change vs veh, VPS4B / RFU, CREB1 / Fold change vs veh, CREB1 / RFU, DNAJC13 / Fold change vs veh, DNAJC13 / RFU, GNAQ / Fold change vs veh, GNAQ / RFU, CDK5R1 / Fold change vs veh, CDK5R1 / RFU, ZRANB3 / Fold change vs veh, ZRANB3 / RFU, CUL4A / Fold change vs veh, CUL4A / RFU, CCNY / Fold change vs veh, CCNY / RFU, UFL1 / Fold change vs veh, UFL1 / RFU, COG3 / Fold change vs veh, COG3 / RFU, DIAPH2 / Fold change vs veh, DIAPH2 / RFU, SKA2 / Fold change vs veh, SKA2 / RFU, AFF3 / Fold change vs veh, AFF3 / RFU, LMF1 / Fold change vs veh, LMF1 / RFU, IPO11 / Fold change vs veh, IPO11 / RFU, DFFB / Fold change vs veh, DFFB / RFU, FOXP1 / Fold change vs veh, FOXP1 / RFU, CARD8 / Fold change vs veh, CARD8 / RFU, STRN3 / Fold change vs veh, STRN3 / RFU, ADK / Fold change vs veh, ADK / RFU, RASSF2 / Fold change vs veh, RASSF2 / RFU, WIPF1 / Fold change vs veh, WIPF1 / RFU, LARP1B / Fold change vs veh, LARP1B / RFU, RASA1 / Fold change vs veh, RASA1 / RFU, RB1 / Fold change vs veh, RB1 / RFU, PPFIA1 / Fold change vs veh, PPFIA1 / RFU, MAT2A / Fold change vs veh, MAT2A / RFU, CCT5 / Fold change vs veh, CCT5 / RFU, WDR92 / Fold change vs veh, WDR92 / RFU, CUX1 / Fold change vs veh, CUX1 / RFU, TTC7A / Fold change vs veh, TTC7A / RFU, TMEM135 / Fold change vs veh, TMEM135 / RFU, DEPTOR / Fold change vs veh, DEPTOR / RFU, CPM / Fold change vs veh, CPM / RFU, DNAJB6 / Fold change vs veh, DNAJB6 / RFU, CACNA2D3 / Fold change vs veh, CACNA2D3 / RFU, DTX4 / Fold change vs veh, DTX4 / RFU, TFCP2 / Fold change vs veh, TFCP2 / RFU, GMCL1 /// GMCL1P1 / Fold change vs veh, GMCL1 /// GMCL1P1 / RFU, AEBP2 / Fold change vs veh, AEBP2 / RFU, SNHG1 /// SNORD22 /// SNORD25 /// SNORD26 /// SNORD27 /// SNORD28 /// SNORD29 /// SNORD31 / Fold change vs veh, SNHG1 /// SNORD22 /// SNORD25 /// SNORD26 /// SNORD27 /// SNORD28 /// SNORD29 /// SNORD31 / Fold change (Aza/veh), C12orf56 (ProbeSet 11735607_a_at) / Fold change (ACY-1035/veh), C12orf56 (ProbeSet 11735607_a_at) / Fold change (Aza/veh), FGFR1OP (ProbeSet 11751329_s_at) / Fold change (ACY-1035/veh), FGFR1OP (ProbeSet 11751329_s_at) / Fold change (Aza/veh), VPS36 (ProbeSet 11739960_a_at) / Fold change (ACY-1035/veh), VPS36 (ProbeSet 11739960_a_at) / RFU SYPL1 (11715823_x_at) / Fold change /veh SYPL1 (11715823_x_at) / RFU IGFBP7 (11715501_s_at) / Fold change /veh IGFBP7 (11715501_s_at) / RFU REEP3 (11722064_at) / Fold change /veh REEP3 (11722064_at) / RFU IGLL1 (11728026_x_at) / Fold change /veh IGLL1 (11728026_x_at): dose or concentration left out as unconfirmed
Details: ProbeSet 11758397_s_at; LIST B

Question: How did the “Fold change vs veh, RNF170” value turn out when Nc1ncn([C@@H]2O[C@H](CO)[C@@H](O)[C@H]2O)c(=O)n1 [azacitidine] was run?
Answer: 1.07
